32 compounds from patent publication US20260152487A1 (Sitryx Therapeutics Limited, priority 2021, published 2026) can be followed below.

For this assay, the target named is T1, recombinant human PKM2 (Homo sapiens, UniProt P14618).
T1 construct: His (N); purchased R&D Systems
The experiment in a line: Human PKM2 activation assay (Kinase-Glo Plus luminescent detection of generated ATP). The format is biochemical. The following applies: for Emax: percentage activation normalised to DMSO vehicle (LOW) and 5 μM TEPP-46 (HIGH), read-out: hPKM2 Emax; for EC50: recombinant human PKM2 activation, 4-parameter logistic fit, read-out: hPKM2 EC50. Put shortly: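 Luminescent ATP detection (Kinase-Glo Plus, 15 min, 26 °C) followed a 60 min, 26 °C shaken reaction of compound with […] His-tagged human PKM2, PEP and ADP in imidazole/KCl/MgCl2 buffer with Tween20 and BSA, pH 7.2.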

T1 sequence (P14618 2-531 limits assumed): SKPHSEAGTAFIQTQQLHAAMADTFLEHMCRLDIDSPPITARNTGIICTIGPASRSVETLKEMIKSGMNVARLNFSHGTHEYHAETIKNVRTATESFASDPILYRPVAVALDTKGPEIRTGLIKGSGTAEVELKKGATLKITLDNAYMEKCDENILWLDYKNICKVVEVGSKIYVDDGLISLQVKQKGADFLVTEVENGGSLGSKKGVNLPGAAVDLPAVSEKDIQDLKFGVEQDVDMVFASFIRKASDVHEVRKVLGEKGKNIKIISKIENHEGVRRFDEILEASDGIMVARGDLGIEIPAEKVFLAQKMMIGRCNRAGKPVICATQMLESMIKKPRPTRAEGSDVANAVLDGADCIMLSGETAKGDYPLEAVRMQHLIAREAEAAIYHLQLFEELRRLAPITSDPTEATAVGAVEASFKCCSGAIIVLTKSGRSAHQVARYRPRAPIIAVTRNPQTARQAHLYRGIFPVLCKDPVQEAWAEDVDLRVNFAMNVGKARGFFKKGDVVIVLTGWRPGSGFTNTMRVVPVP

Usually Emax stands for the greatest response seen or fitted, relative to the assay's reference. Usually EC50 stands for the midpoint of the concentration-response curve. As for `Nc1cccc(Cn2ncc3cc(S(=O)(=O)c4ccc5c(c4)CCO5)ccc3c2=O)c1` [Example 143, 2-(3-aminobenzyl)-6-((2,3-dihydrobenzofuran-5-yl)sulfonyl)phthalazin-1(2H)-one], the Emax was found to be 104% and the EC50 was 27.7 nM.

Take `Nc1cccc(Cn2ncc3cc(S(=O)(=O)c4ccccn4)ccc3c2=O)c1` [Example 144, 2-(3-aminobenzyl)-6-(pyridin-2-ylsulfonyl)phthalazin-1(2H)-one]: the maximal effect (Emax) is 114% and the EC50 was 144 nM.

`Cn1ccc(S(=O)(=O)c2ccc3c(=O)n(Cc4cccc(N)c4)ncc3c2)n1` [Example 145, 2-(3-aminobenzyl)-6-((1-methyl-1H-pyrazol-3-yl)sulfonyl)phthalazin-1(2H)-one]: the Emax was 106% and the EC50 was 156 nM.

Take `Cc1ccc(S(=O)(=O)c2ccc3c(=O)n(Cc4cccc(N)c4)ncc3c2)s1` [Example 146, 2-(3-aminobenzyl)-6-((5-methylthiophen-2-yl)sulfonyl)phthalazin-1(2H)-one]: the Emax amounted to 115% and the EC50 was 75.3 nM.

On to `COc1ccc(Cn2ncc3cc(S(=O)(=O)c4ccc(F)cc4)ccc3c2=O)cn1` [Example 147, 6-((4-fluorophenyl)sulfonyl)-2-((6-methoxypyridin-3-yl)methyl)phthalazin-1(2H)-one], for which the Emax came to 98.8% and the EC50 worked out at 94.8 nM.

For the compound `COc1ccc(Cn2ncc3cc(S(=O)(=O)c4cc(C)ns4)ccc3c2=O)cn1` [Example 148, 2-((6-methoxypyridin-3-yl)methyl)-6-(3-methylisothiazol-5-ylsulfonyl)phthalazin-1(2H)-one], the Emax amounted to 71.3% and the EC50 stood at 58.4 nM.

As for `COc1ccc(S(=O)(=O)c2ccc3c(=O)n(Cc4cccc(N)c4)ncc3c2)cn1` [Example 149, 2-(3-aminobenzyl)-6-((6-methoxypyridin-3-yl)sulfonyl)phthalazin-1(2H)-one], the Emax was 100% and the EC50 turned out to be 54.6 nM.

As to `Nc1cccc(Cn2ncc3cc(S(=O)(=O)c4ccc5c(c4)OCO5)ccc3c2=O)c1` [Example 152, 2-(3-aminobenzyl)-6-(benzo[d][1,3]dioxol-5-ylsulfonyl)phthalazin-1(2H)-one], the Emax amounted to 95.2% and the 50% effective concentration (EC50) stood at 19 nM.

As to `COc1ccc(Cn2ncc3cc(S(=O)(=O)c4ccc(OC(F)F)cc4)ccc3c2=O)cn1` [Example 153, 6-(4-(difluoromethoxy)phenylsulfonyl)-2-((6-methoxypyridin-3-yl)methyl)phthalazin-1(2H)-one], the Emax was 77.2% and the EC50 was determined as 15.7 nM.

As for `COc1ccc(Cn2ncc3cc(S(=O)(=O)c4cccc(Cl)c4)ccc3c2=O)cn1` [Example 154, 6-((3-chlorophenyl)sulfonyl)-2-((6-methoxypyridin-3-yl)methyl)phthalazin-1(2H)-one], the Emax worked out at 93.7% and the concentration for a half-maximal effect (EC50) turned out to be 141 nM.

For `COc1ccc(Cn2ncc3cc(S(=O)(=O)c4ccc(Cl)cc4)ccc3c2=O)cn1` [Example 155, 6-((4-chlorophenyl)sulfonyl)-2-((6-methoxypyridin-3-yl)methyl)phthalazin-1(2H)-one], the Emax was found to be 71.6% and the EC50 is 184 nM.

Turning to `COc1ccc(Cn2ncc3cc(S(=O)(=O)c4ccc5c(c4)OC(F)(F)O5)ccc3c2=O)cn1` [Example 156], the Emax came out at 88.7% and the EC50 came out at 91 nM.

`COc1ccc(Cn2ncc3cc(S(=O)(=O)c4cccc(F)c4)ccc3c2=O)cn1` [Example 157, 6-((3-fluorophenyl)sulfonyl)-2-((6-methoxypyridin-3-yl)methyl)phthalazin-1(2H)-one]: the Emax came to 87.5% and the EC50 amounted to 123 nM.

For the compound `COc1ccc(Cn2ncc3cc(S(=O)(=O)c4ccn(C)n4)ccc3c2=O)cn1` [Example 158, 2-((6-methoxypyridin-3-yl)methyl)-6-((1-methyl-1H-pyrazol-3-yl)sulfonyl)phthalazin-1(2H)-one], the maximum response (Emax) came to 85.4% and the EC50 is 186 nM.

Regarding `COc1ccc(Cn2ncc3cc(S(=O)(=O)c4cc(C)ccn4)ccc3c2=O)cn1` [Example 159, 2-((6-methoxypyridin-3-yl)methyl)-6-(4-methylpyridin-2-ylsulfonyl)phthalazin-1(2H)-one], the maximum response (Emax) turned out to be 72.4% and the 50% effective concentration (EC50) is 501 nM.

With `COc1ccc(Cn2ncc3cc(S(=O)(=O)c4cccc(OC)n4)ccc3c2=O)cn1` [Example 160, 6-(6-methoxypyridin-3-yl)methyl)phthalazin-1(2H)-onemethoxypyridin-2-ylsulfonyl)-2-((6-], the Emax amounted to 83.3% and the EC50 was determined as 237 nM.

On to `COc1ccc(Cn2ncc3cc(S(=O)(=O)c4cccc(C(N)=O)c4)ccc3c2=O)cn1` [Example 161, 3-(2-((6-methoxypyridin-3-yl)methyl)-1-oxo-1,2-dihydrophthalazin-6-ylsulfonyl)benzamide], for which the Emax worked out at 56.8% and the EC50 amounted to 211 nM.

As to `COc1ccc(Cn2ncc3cc(S(=O)(=O)c4ccccc4F)ccc3c2=O)cn1` [Example 162, 6-(2-fluorophenylsulfonyl)-2-((6-methoxypyridin-3-yl)methyl)phthalazin-1(2H)-one], the Emax turned out to be 99.5% and the EC50 came out at 83.4 nM.

`COc1ccc(Cn2ncc3cc(S(=O)(=O)c4ccccc4Cl)ccc3c2=O)cn1` [Example 163, 6-(2-chlorophenylsulfonyl)-2-((6-methoxypyridin-3-yl)methyl)phthalazin-1(2H)-one]: the Emax was 77.3% and the EC50 is 135 nM.

Turning to `COc1ccc(Cn2ncc3cc(S(=O)(=O)c4ccccc4OC)ccc3c2=O)cn1` [Example 164, 6-(2-methoxyphenylsulfonyl)-2-((6-methoxypyridin-3-yl)methyl)phthalazin-1(2H)-one], the maximum response (Emax) is 107% and the concentration for a half-maximal effect (EC50) came out at 146 nM.

Take `COc1ccnc(S(=O)(=O)c2ccc3c(=O)n(Cc4ccc(OC)nc4)ncc3c2)c1` [Example 165, 6-(4-methoxypyridin-2-ylsulfonyl)-2-((6-methoxypyridin-3-yl)methyl)phthalazin-1(2H)-one]: the Emax worked out at 77.5% and the EC50 is 456 nM.

As for `COc1ccc(Cn2ncc3cc(S(=O)(=O)c4ccc5c(c4)CC(C)(C)O5)ccc3c2=O)cn1` [Example 166, 6-((2,2-dimethyl-2,3-dihydrobenzofuran-5-yl)sulfonyl)-2-((6-methoxypyridin-3-yl)methyl)phthalazin-1(2H)-one], the Emax was determined as 99.4% and the concentration for a half-maximal effect (EC50) turned out to be 131 nM.

`COc1ccc(Cn2ncc3cc(S(=O)(=O)c4ccc5c(c4)CC(C)O5)ccc3c2=O)cn1` (stereo not shown) [Example 167, 2-((6-methoxypyridin-3-yl)methyl)-6-((2-methyl-2,3-dihydrobenzofuran-5-yl)sulfonyl)phthalazin-1(2H)-one]: the Emax came to 95.5% and the EC50 amounted to 65.8 nM.

With `COc1ccc(Cn2ncc3cc(S(=O)(=O)c4cnn(C)c4)ccc3c2=O)cn1` [Example 168, 2-((6-methoxypyridin-3-yl)methyl)-6-((1-methyl-1H-pyrazol-4-yl)sulfonyl)phthalazin-1(2H)-one], the maximal response (Emax) came to 96% and the EC50 turned out to be 103 nM.

Regarding `COc1ccc(Cn2ncc3cc(S(=O)(=O)c4cccc(C)n4)ccc3c2=O)cn1` [Example 169, 2-((6-methoxypyridin-3-yl)methyl)-6-(6-methylpyridin-2-ylsulfonyl)phthalazin-1(2H)-one], the Emax was found to be 83% and the EC50 was 185 nM.

On to `COc1ccc(Cn2ncc3cc(S(=O)(=O)c4cccc(OC(F)F)c4)ccc3c2=O)cn1` [Example 170, 6-(3-(difluoromethoxy)phenylsulfonyl)-2-((6-methoxypyridin-3-yl)methyl)phthalazin-1(2H)-one], for which the Emax worked out at 101% and the EC50 worked out at 82 nM.

On to `COc1ccc(Cn2ncc3cc(S(=O)(=O)c4ccc(C)s4)ccc3c2=O)cn1` [Example 171, 2-((6-methoxypyridin-3-yl)methyl)-6-(5-methylthiophen-2-ylsulfonyl)phthalazin-1(2H)-one], for which the Emax is 82.3% and the EC50 turned out to be 77.2 nM.

Regarding `COc1ccc(S(=O)(=O)c2ccc3c(=O)n(Cc4ccc(OC)nc4)ncc3c2)nc1` [Example 172, 6-(5-methoxypyridin-2-ylsulfonyl)-2-((6-methoxypyridin-3-yl)methyl)phthalazin-1(2H)-one], the Emax worked out at 84.1% and the EC50 stood at 61.9 nM.

As for `COc1ccc(Cn2ncc3cc(S(=O)(=O)c4cnc(C(F)F)s4)ccc3c2=O)cn1` [Example 173, 6-(2-(difluoromethyl)thiazol-5-ylsulfonyl)-2-((6-methoxypyridin-3-yl)methyl)phthalazin-1(2H)-one], the Emax was found to be 67.2% and the EC50 stood at 152 nM.

Regarding `COc1ccc(Cn2ncc3cc(S(=O)(=O)c4csc(C)n4)ccc3c2=O)cn1` [Example 174, 2-((6-methoxypyridin-3-yl)methyl)-6-(2-methylthiazol-4-ylsulfonyl)phthalazin-1(2H)-one], the Emax was 94.2% and the EC50 worked out at 106 nM.

As to `COc1ccc(Cn2ncc3cc(S(=O)(=O)c4ccc(OC)nc4)ccc3c2=O)cn1` [Example 175, 2-((6-methoxypyridin-3-yl)methyl)-6-(6-methoxypyridin-3-ylsulfonyl)phthalazin-1(2H)-one], the Emax was found to be 97.2% and the EC50 is 71.2 nM.

With `COc1ccc(Cn2ncc3cc(S(=O)(=O)c4cccc5sc(C)nc45)ccc3c2=O)cn1` [Example 176, 2-((6-methoxypyridin-3-yl)methyl)-6-(2-methylbenzo[d]thiazol-4-ylsulfonyl)phthalazin-1(2H)-one], the Emax was 95.8% and the EC50 came to 455 nM.
